Test results taken from EP4745134A1 (Jiangsu Yahong Meditech Co., Ltd., priority 2023, dated 2025).

Key:
PRMT5-MTA = PRMT5-MTA (Homo sapiens, UniProt O14744); assay: Enzymatic inhibitory activity against PRMT5-MTA (AlphaScreen); type: biochemical; conditions: read-out: IC50
Method in brief: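 PRMT5/[…] (1 nM) was preincubated for 30 min at room temperature with 1 µM […] and 2.5 µM SAM, then exposed to compound (10-point, 3-fold from 1000 nM) for 15 min at 23 °C. Histone H4 substrate (5 nM) was added and reacted for 45 min at 23 °C. Symmetric dimethyl-R3 H4 was detected by AlphaScreen and IC50 calculated.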

HCT116 MTAP KO cells = assay: Inhibitory activity against cell proliferation (CellTiter Glo, 6 days), HCT116 MTAP KO; type: cell-based; conditions: for IC50: Homo sapiens, HCT-116, 144 h, HCT116 MTAP KO cells, 6 days, CellTiter Glo, read-out: HCT116 MTAP KO IC50; for Selectivity HCT 116-WT/ HCT116 MTAP KO: ratio of IC50 HCT116-WT / HCT116 MTAP KO
Method in brief: (§1)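 Cells were seeded at 250 per well in McCoy's 5A with 10% FBS and left overnight at 37°C, 5% CO2. Compounds were added as 8-point, 4-fold dilutions from 10000 nM, with DMSO-only controls, for 6 days. IC50 values came from CellTiter Glo luminescence.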

HCT116-WT cells = assay: Inhibitory activity against cell proliferation (CellTiter Glo, 6 days), HCT116-WT; type: cell-based; conditions: 144 h, HCT116-WT cells, 6 days, CellTiter Glo; read-out: HCT116-WT IC50
Method in brief: as §1

Chain of PRMT5-MTA (O14744 whole entry): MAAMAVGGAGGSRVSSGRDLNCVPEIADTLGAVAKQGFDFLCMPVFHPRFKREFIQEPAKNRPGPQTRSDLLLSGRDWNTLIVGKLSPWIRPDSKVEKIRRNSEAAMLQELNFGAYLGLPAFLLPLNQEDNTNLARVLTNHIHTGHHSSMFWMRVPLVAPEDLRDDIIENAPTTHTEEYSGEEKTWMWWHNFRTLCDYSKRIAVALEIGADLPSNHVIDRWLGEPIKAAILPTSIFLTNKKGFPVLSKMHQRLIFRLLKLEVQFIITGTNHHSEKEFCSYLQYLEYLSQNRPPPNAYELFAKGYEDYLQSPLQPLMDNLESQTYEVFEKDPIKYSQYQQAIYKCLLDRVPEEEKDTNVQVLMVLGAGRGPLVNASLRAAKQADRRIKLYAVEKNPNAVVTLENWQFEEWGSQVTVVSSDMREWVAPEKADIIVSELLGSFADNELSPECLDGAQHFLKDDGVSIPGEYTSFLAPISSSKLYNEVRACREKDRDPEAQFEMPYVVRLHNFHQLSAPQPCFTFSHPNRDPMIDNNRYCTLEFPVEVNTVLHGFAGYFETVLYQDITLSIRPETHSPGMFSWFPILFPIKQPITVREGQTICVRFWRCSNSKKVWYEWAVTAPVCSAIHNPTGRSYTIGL
Chain of PRMT5-MTA (Q9BQA1 whole entry partner): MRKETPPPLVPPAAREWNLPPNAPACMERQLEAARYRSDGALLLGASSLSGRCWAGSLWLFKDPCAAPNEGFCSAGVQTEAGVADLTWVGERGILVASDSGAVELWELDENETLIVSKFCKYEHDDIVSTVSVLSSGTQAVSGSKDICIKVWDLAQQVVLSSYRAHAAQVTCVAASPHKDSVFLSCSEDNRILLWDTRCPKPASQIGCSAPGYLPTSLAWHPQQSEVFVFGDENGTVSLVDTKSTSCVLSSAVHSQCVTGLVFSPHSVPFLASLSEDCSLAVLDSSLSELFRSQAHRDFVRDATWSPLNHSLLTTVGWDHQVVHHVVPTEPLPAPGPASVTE

Compound | IC50 (PRMT5-MTA) [nM] | IC50 (HCT116 MTAP KO cells) [nM] | Selectivity HCT 116-WT/ HCT116 MTAP KO (HCT116 MTAP KO cells) | IC50 (HCT116-WT cells) [nM]
Cc1cc2cc(C(=O)N(Cc3ccc(C(F)(F)F)cn3)N(C)c3cnccn3)ccc2nc1N [Example 34, 2-amino-N',3-dimethyl-N'-(pyrazin-2-yl) -N-((5-(trifluoromethyl)pyridin-2-yl)methyl)quinoline-6-carbohydrazide] | 1.5 | 58 | 21.90 | 1270
COc1cnc(N(C)N(Cc2ccc(C(F)(F)F)cn2)C(=O)c2ccc3nc(N)c(C)cc3c2)nc1 [Example 39, 2-amino-N'-(5-methoxypyrimidin-2-yl)-N',3-dimethyl-N-((5-(trifluoromethyl)pyridin-2-yl)methyl)quinoline-6-carbohydrazide] | 2.7 | 235 | 15.95 | 3750
Cc1cc2cc(C(=O)N(Cc3ccc(C(F)(F)F)cn3)N(C)c3nccc(C(F)(F)F)n3)ccc2nc1N [Example 40, 2-amino-N',3-dimethyl-N-((5-(trifluoromethyl)pyridin-2-yl)methyl)-N'-(4-(trifluor omethyl)pyrimidin-2-yl)quinoline-6-carb ohydrazide] | 1.7 | 83 | 31.19 | 2590
Cc1cc2cc(C(=O)N(Cc3ccc(C(F)(F)F)cn3)N(C)c3nccc4occc34)ccc2nc1N [Example 42, 2-amino-N'-(furo[3,2-c]pyridin-4-yl)-N', 3-dimethyl-N-((5-(trifluoromethyl)pyridin-2-yl)methyl)quinoline-6-carbohydrazide] | 3 | 49 | 54.14 | 2650
Cc1cc2cc(C(=O)N(Cc3ccc(Br)cn3)N(C)c3ncccc3F)ccc2nc1N [Example 48, 2-amino-N-((5-bromopyridin-2-yl)methyl)-N'-(3-fluoropyridin-2-yl)-N',3-dimethyl quinoline-6-carbohydrazide] | 3.7 | 13 | 35.85 | 466
Cc1ccnc(N(C)N(Cc2ccc(C(F)(F)F)cn2)C(=O)c2ccc3nc(N)c(C)cc3c2)n1 [Example 49, 2-amino-N',3-dimethyl-N'-(4-methylpyrimidin-2-yl)-N-((5-(trifluoromethyl)pyridin-2-yl)methyl)quinoline-6-carbohydrazide] | 2.2 | 80 | 22.18 | 1770
Cc1cc2cc(C(=O)N(Cc3ccc(C(F)(F)F)cn3)N(C)c3ncc(Br)cn3)ccc2nc1N [Example 50, 2-amino-N'-(5-bromopyrimidin-2-yl)-N', 3-dimethyl-N-((5-(trifluoromethyl)pyridin-2-yl)methyl)quinoline-6-carbohydrazide] | 2.1 | 219 | 17.33 | 3800
Cc1cc2cc(C(=O)N(Cc3ccc4ccccc4n3)N(C)c3ncccn3)ccc2nc1N [Example 51, 2-amino-N',3-dimethyl-N'-(pyrimidin-2-yl)-N-(quinolin-2-ylmethyl)quinoline-6-carbohydrazide] | 1.7 | 116 | 17.78 | 2060
CN(c1ccccc1)N(Cc1ccc(C(F)(F)F)cn1)C(=O)c1ccc2nc(N)c3cnn(C)c3c2c1 [Example 52, 4-amino-N',1-dimethyl-N'-phenyl-N-((5-(trifluoromethyl)pyridin-2-yl)methyl)-1H-pyrazolo[4,3-c]quinoline-8-carbohydrazide] | 3.7 | 13 | 32.08 | 417
Cc1cc2cc(C(=O)N(Cc3ccc(C(F)(F)F)cn3)N(C)c3ncccc3C(F)(F)F)ccc2nc1N [Example 53, 2-amino-N',3-dimethyl-N'-(3-(trifluoromethyl)pyridin-2-yl)-N-((5-(trifluoromethy 1)pyridin-2-yl)methyl)quinoline-6-carbohydrazide] | 1.5 | 90 | 25.34 | 2280
